Laboratory results published in US9156790B2, “Anticancer P21-activated kinase inhibitors” (Ohio State Innovation Foundation, priority 2013, dated 2015).
Like-named read-outs stand apart in the source and are kept apart here.

Experiments:
Recombinant active PAK 1 = biological target: T1, Recombinant active PAK 1 (Homo sapiens, UniProt Q13153); test: In vitro PAK1 kinase assay (MBP substrate, 32P-ATP); assay type: biochemical; details: for Relative PAK1 inhibitory potency (comparison in words): in vitro kinase assay, comparison between compounds / with OSU-03012; for Inhibition of PAK1 kinase activity in initial screen: 7.5 μM inhibitor, 2.5 μM ATP, myelin basic protein substrate (FIG. 2A)
T1 construct: purchased Calbiochem
T1 sequence (Q13153 whole entry): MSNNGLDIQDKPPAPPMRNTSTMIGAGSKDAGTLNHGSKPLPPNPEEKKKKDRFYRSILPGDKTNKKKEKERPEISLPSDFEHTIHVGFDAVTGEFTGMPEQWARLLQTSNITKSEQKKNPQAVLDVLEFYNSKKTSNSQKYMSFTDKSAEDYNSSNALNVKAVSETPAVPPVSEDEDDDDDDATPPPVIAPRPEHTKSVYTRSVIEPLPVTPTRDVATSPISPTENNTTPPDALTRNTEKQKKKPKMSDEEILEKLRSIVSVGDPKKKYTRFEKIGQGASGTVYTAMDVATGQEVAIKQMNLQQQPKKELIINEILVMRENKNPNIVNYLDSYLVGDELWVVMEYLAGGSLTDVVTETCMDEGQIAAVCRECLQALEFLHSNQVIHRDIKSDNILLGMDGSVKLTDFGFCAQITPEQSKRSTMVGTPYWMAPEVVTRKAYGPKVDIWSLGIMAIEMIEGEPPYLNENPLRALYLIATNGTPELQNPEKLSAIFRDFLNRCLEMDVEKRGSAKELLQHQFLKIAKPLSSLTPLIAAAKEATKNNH
Description: Recombinant active PAK 1 (Calbiochem) was incubated with selected derivatives or 0.1% DMSO in the presence or absence of MBP (Sigma) in a 1× kinase buffer (Cell Signaling). The addition of [γ-32P]-ATP (2.5 μCi/reaction) (Perkin Elmer) started the reaction, which was incubated at 30° C. for 30 minutes. The reaction was terminated by the addition of EDTA. Results were obtained after visualization of ^32P-labeled MBP after separation on 12% polyacrylamide gels and autoradiography. For the Lineweaver-Burk plot analysis, the ratio of radioactive ATP to nonradioactive ATP was not altered. The PAK1 kinase activities are the means of three independent experiments quantified using P81 phosphocellulose paper by a scintillation counter after three washes with 0.75% phosphoric acid.
Screening of OSU-03012 Derivatives to Identify PAK1 Inhibitors. The 17 derivatives along with OSU-03012, each at 7.5 μM, were screened for their ability to inhibit PAK1 activity by in vitro PAK1 kinase assay. The dose was chosen (above the IC50 of OSU-03012) to allow OSU-03012 to serve as a robust positive control. The PAK1 kinase assay was performed using recombinant active PAK1 with myelin basic protein as substrate in the presence of 2.5 μM ATP and 7.5 μM of respective inhibitors.
To further investigate these six compounds, dose-response studies on PAK1 activity were performed by using PAK1 kinase assay. […] We next questioned whether compounds 4 or 15 inhibited PAK1 in an ATP competitive manner as their parent compound OSU-03012.

BCPAP cells = test: MTT cell viability assay, BCPAP; assay type: cell-based, Human; details: 72-hours of exposure, 1% FBS, mean±standard deviation (n=3), read-out: IC50 for reducing viability of BCPAP cells versus DMSO control
Excerpt: (§1) Human thyroid cancer BCPAP, TPC1, and FTC133 cell lines were the generous gifts of Drs. Rebecca Schweppe and Bryan Haugen (University of Colorado Denver) (Schweppe et al., The Journal of clinical endocrinology and metabolism 83:4331-4341 (2008)) with permission from the following originating laboratories: BCPAP—Dr. Fabien, Centre Hospitalier Lyon-Sud, France (Fabien et al., Cancer 73:2206-2212 (1994)); TPC1—Dr. Sato, Kanazawa University, Japan (Tanaka et al., Virology 161:62-411 (1987)); and FTC133—Dr. Goretzki, University of Leipzig, Germany (Goretzki et al., Recent Results Cancer Res 118:48-63 (1990)). The obtained cell lines were confirmed for identity by DNA fingerprinting. BCPAP was grown in RPMI 1640 medium (Life Technologies Co., Carlsbad, Calif.) while FTC133 and TPC1 were grown in DMEM (Life Technologies Co.), both supplemented with 10% fetal bovine serum (FBS) and NEAA unless as noted for experiments.
(§2) The effect of OSU-03012 and its derivatives on cell viability was assessed by using the 3-(4,5-dimethylthiazol-2-yl)-2,5-diphenyl-2H-tetrazolium bromide (MTT) assay. Three replicates were performed in each individual experiment, and experiments were repeated at least three separate times. Cells were grown in 96-well plates for 24 hours and were exposed to various concentrations of drugs dissolved in DMSO (final concentration 0.1%) in RPMI 1640 or DMEM containing 1% FBS for 72 hours. 10 μL of 0.5 mg/ml MTT was added to each well and cells were incubated in CO2 at 37° C. for 2 hours. Supernatants were removed from the wells, the reduced MTT dye was solubilized in 100 μL of solution C (12 ml of 1N HCl in 300 mL of isopropanol), and absorbance at 570 nm was determined on a microplate reader.
(§3) We assessed the ability of the compounds to reduce cell viability in vitro by MTT assay after 72 hours of continuous exposure. Results are shown in Table 1 and are depicted as the IC50 vs. simultaneously performed DMSO control.
(§4) ^aThe reported IC50 values are concentrations at which BCPAP, FTC133 and TPC1 cell viability by MTT assays 50% of DMSO control after 72-hours of exposure. Data are presented as mean±standard deviation (n=3). PAK and PDK1 Selectivity In Vivo

TPC1 cells = test: MTT cell viability assay, TPC1; assay type: cell-based, Human; details: 1% FBS, mean±standard deviation (n=3), read-out: IC50 for reducing viability of TPC1 cells versus DMSO control
Excerpt: as §1, §2, §3, §4

FTC133 cells = test: MTT cell viability assay, FTC133; assay type: cell-based, Human; details: 1% FBS, mean±standard deviation (n=3), read-out: IC50 for reducing viability of FTC133 cells versus DMSO control
Excerpt: as §1, §2, §3, §4

[1] = Homo sapiens, TPC1, 72-hours of exposure
[2] = Homo sapiens, FTC-133, 72-hours of exposure

Compound	Relative PAK1 inhibitory potency (comparison in words) (Recombinant active PAK 1)	IC50 (BCPAP cells) [µM]	IC50 (TPC1 cells; 72-hours of exposure) [µM]	IC50 (FTC133 cells; 72-hours of exposure) [µM]	Inhibition of PAK1 kinase activity in initial screen (Recombinant active PAK 1)	IC50 (BCPAP cells; Homo sapiens, BCPAP) [µM]	IC50 (TPC1 cells; [1]) [µM]	IC50 (FTC133 cells; [2]) [µM]
1-(4-Aminophenyl)-5-(phenanthren-2-yl)-1H-pyrazol-3-yl) methanol [Compound 6]	did not show any activity	> 10	> 10	> 10				
NCC(=O)Nc1ccc(-n2nc(C(=O)NCc3ccccc3)cc2-c2ccc3ccc4ccccc4c3c2)cc1 [Compound 1, 1-(4-(2-Aminoacetamido)phenyl)-N-benzyl-5-(phenanthren-3-yl)-1H-pyrazole-3-carboxamide]					inhibited PAK1 kinase activity	2.01 ± 0.59	2.6 ± 0.81	4.78 ± 4.53
CCNC(=O)c1cc(-c2ccc3ccc4ccccc4c3c2)n(-c2ccc(NC(=O)CN)cc2)n1 [Compound 2, 1-(4-(2-aminoacetamido)phenyl)-N-ethyl-5-(phenanthren-3-yl)-1H-pyrazole-3-carboxamide]						2.67 ± 0.82	1.81 ± 1.24	4.83 ± 4.47
NCC(=O)Nc1ccc(-n2nc(C(F)(F)F)cc2-c2ccc3ccc4ccccc4c3c2)cc1 [Compound 3, 2-Amino-N-(4-(5-(phenanthren-3-yl)-3-(trifluoromethyl)-1H-pyrazol-1-yl)phenyl)-acetamide]	slightly more potent				inhibited PAK1 kinase activity	2.34 ± 0.27	3.17 ± 1.29	5.32 ± 4.05
CNC(=O)c1cc(-c2ccc3c(ccc4ccccc43)c2)n(-c2ccc(N)cc2)n1 [Compound 5, 1-(4-Aminophenyl)-N-methyl-5-(phenanthren-2-yl)-1H-pyrazole-3-carboxamide]	did not show any activity					> 10	> 10	5.03 ± 0.25
CNC(=O)c1cc(-c2ccc3ccc4ccccc4c3c2)n(-c2ccc(NC(=O)CN)cc2)n1 [Compound 7, 1-(4-(2-aminoacetamido)phenyl)-N-methyl-5-(phenanthren-3-yl)-1H-pyrazole-3-carboxamide]						3.71 ± 1.82	3.67 ± 1.52	4.53 ± 2.57
CNC(=O)c1cc(-c2ccc3c(ccc4ccccc43)c2)n(-c2ccc(NC(=O)CN)cc2)n1 [Compound 8, 1-(4-(2-Aminoacetamido)phenyl)-N-methyl-5-(phenanthren-2-yl)-1H-pyrazole-3-carboxamide]						2.9 ± 2.35	4.67 ± 4.16	3.08 ± 1.63
NCC(=O)Nc1ccc(-n2nc(CO)cc2-c2ccc3ccc4ccccc4c3c2)cc1 [Compound 9, 2-Amino-N-(4-(3-(hydroxymethyl)-5-(phenanthren-3-yl)-1H-pyrazol-1-yl)phenyl)-acetamide]	did not show any improvement					4.04 ± 1.38	2.42 ± 0.13	4.75 ± 2.47
NCC(=O)Nc1ccc(-n2nc(CO)cc2-c2ccc3c(ccc4ccccc43)c2)cc1 [Compound 10, 2-Amino-N-(4-(3-(hydroxymethyl)-5-(phenanthren-2-yl)-1H-pyrazol-1-yl)phenyl)-acetamide]	more potent activity				inhibited PAK1 kinase activity	6.53 ± 2.16	7.39 ± 1.9	8.95 ± 0.57
NCCC(=O)Nc1ccc(-n2nc(CO)cc2-c2ccc3c(ccc4ccccc43)c2)cc1 [Compound 12, 3-Amino-N-(4-(3-(hydroxymethyl)-5-(phenanthren-2-yl)-1H-pyrazol-1-yl)phenyl)-propanamide]						3.76 ± 1.2	5.83 ± 1.73	7.55 ± 2.19
CNC(=O)c1cc(-c2ccc3ccc4ccccc4c3c2)n(-c2ccc(NC(=O)CCN)cc2)n1 [Compound 13, 1-(4-(3-Aminopropanamido)phenyl)-N-methyl-5-(phenanthren-3-yl)-1H-pyrazole-3-carboxamide]	more potent					2.76 ± 1.56	3.62 ± 0.42	4.95 ± 3.21
CNC(=O)c1cc(-c2ccc3c(ccc4ccccc43)c2)n(-c2ccc(NC(=O)CCN)cc2)n1 [Compound 14, 1-(4-(3-aminopropanamido)phenyl)-N-methyl-5-(phenanthren-2-yl)-1 μl-pyrazole-3-carboxamide]	more potent	3.32 ± 1.09	5.98 ± 0.28	5.42 ± 1.56				
Nc1ccc(-n2nc(CO)cc2-c2ccc3ccc4ccccc4c3c2)cc1 [Compound 16, (1-(4-Aminophenyl)-5-(phenanthren-3-yl)-1H-pyrazol-3-yl)methanol]	did not show any activity					> 10	4.32 ± 2.18	> 10
CNC(=O)c1cc(-c2ccc3ccc4ccccc4c3c2)n(-c2ccc(N)cc2)n1 [Compound 17, 1-(4-Aminophenyl)-N-methyl-5-(phenanthren-3-yl)-1H-pyrazole-3-carboxamide]	did not show any activity					> 10	8.96 ± 1.17	> 10
